Reference: patent publication US20250145633A1, “SUBSTITUTED FURANOPYRIMIDINE COMPOUNDS AS PDE1 INHIBITORS” (Dart NeuroScience, LLC, priority 2017, published 2025)

Target: human PDE1B enzyme (Homo sapiens (Human), UniProt Q01064)
Assay: IMAP TR-FRET PDE1B enzymatic assay
Assay type: biochemical
Settings: negative log of half-maximal molar inhibitory concentration, 200 nM FAM-cAMP, values given as bins; for IC50: read-out: PDE1b (pIC50) (converted)
Protocol: PDE1B inhibition was determined by an IMAP TR-FRET assay. The IMAP TR-FRET PDE assay was optimized for concentration of enzyme, Calmodulin, cAMP or cGMP substrate, DMSO tolerance, and incubation time.
Into each well of a solid white 1536 well plate (Corning) was dispensed 250 pg full-length recombinant NH-terminal GST tagged human PDE1B enzyme (BPS Bioscience Cat #60011, San Diego, CA) in 2.5 μL IMAP BSA reaction buffer (Molecular Devices, Sunnyvale, CA) containing 10 U/ml Calmodulin and 2.5 mM CaCl2) (Sigma Aldrich.) After a brief centrifugation, 30 nL of compound was added by transfer from 1 mM stock in DMSO using a Kalypsys 1536 Pintool. Plates were incubated for 5 minutes at room temperature before dispensing 1.5 μL of 533 nM 5-carboxy fluorescein (FAM)-labeled cAMP (Molecular Devices, Sunnyvale, CA) for a final concentration of 200 nM. After a brief centrifugation, the plates were incubated for 30 minutes at room temperature. The assay was terminated by adding 5 μL IMAP binding reagent/Tb complex (Molecular Devices, Sunnyvale, CA) to each well.
Plates were incubated for 1 hour at room temperature and were read on a Viewlux multimode plate reader (Perkin Elmer). The instrument was set to excite using the DUG11 filter and measure using 490/10 nm and 520/10 nm filters. Ratios of acceptor and donor were then calculated.
For IC50 calculations, the values of % efficacy versus a series of compound concentrations were then plotted using non-linear regression analysis of sigmoidal dose-response curves generated with the equation Y=[B+(T−B)]/[1+10((Log EC50−X)×Hill Slope)], where Y=percent activity, B=minimum percent efficacy, T=maximum percent efficacy, X=logarithm of compound and Hill Slope=slope factor or Hill coefficient. The IC50 value was determined by the concentration causing a half-maximal percent efficacy.

| SMILES | IC50 [nM] | PDE1b (pIC50) |
| --- | --- | --- |
| Cc1oc2ncnc(NC3(C)CC3)c2c1C(=O)N1CC[C@@H]2CCCC[C@H]2C1 (stereo in doubt) [Example 271, 5-[(4aS,8aR)-Decahydroisoquinoline-2-carbonyl]-6-methyl-N-(1-methylcyclopropyl)furo[2,3-d]pyrimidin-4-amine] | 10 to 100 | – |
| COc1ccc(C(C)NC(=O)c2c(C)oc3ncnc(NC4(C)CC4)c23)cc1 (stereo in doubt) [Example 480, N-[(1S)-1-(4-Methoxyphenyl)ethyl]-6-methyl-4-[(1-methylcyclopropyl)amino]furo[2,3-d]pyrimidine-5-carboxamide] | 10 to 100 | – |
| COc1ccccc1C(C)NC(=O)c1c(C)oc2ncnc(NC3(C)CC3)c12 (stereo in doubt) [Example 482, N-[(1S)-1-(2-Methoxyphenyl)ethyl]-6-methyl-4-[(1-methylcyclopropyl)amino]furo[2,3-d]pyrimidine-5-carboxamide] | 10 to 100 | – |
| Cc1oc2ncnc(NC3(C)CC3)c2c1C(=O)NC(C)c1ccc(F)cc1 (stereo in doubt) [Example 484, N-[(1R)-1-(4-Fluorophenyl)ethyl]-6-methyl-4-[(1-methylcyclopropyl)amino]furo[2,3-d]pyrimidine-5-carboxamide] | 10 to 100 | – |
| Cc1oc2ncnc(NC3(C)CC3)c2c1C(=O)NC(C)c1ncc(F)cn1 (stereo in doubt) [Example 518, N-[(1S)-1-(5-Fluoropyrimidin-2-yl)ethyl]-6-methyl-4-[(1-methylcyclopropyl)amino]furo[2,3-d]pyrimidine-5-carboxamide] | 100 to 1000 | – |
| COc1ccc(C(C)NC(=O)c2c(C)oc3ncnc(NC4(C)CC4)c23)cc1OC (stereo in doubt) [Example 556, N-[(1R)-1-(3,4-Dimethoxyphenyl)ethyl]-6-methyl-4-[(1-methylcyclopropyl)amino]furo[2,3-d]pyrimidine-5-carboxamide] | – | >8 |
| COc1ccc(C(C)NC(=O)c2c(C)oc3ncnc(NC4(C)CC4)c23)cc1 (stereo in doubt) [Example 560, N-[(1R)-1-(4-Methoxyphenyl)ethyl]-6-methyl-4-[(1-methylcyclopropyl)amino]furo[2,3-d]pyrimidine-5-carboxamide] | – | >8 |
| Cc1oc2ncnc(NC3(C)CC3)c2c1C(=O)NC(C)c1ncc(F)cn1 (stereo in doubt) [Example 615, N-[(1R)-1-(5-Fluoropyrimidin-2-yl)ethyl]-6-methyl-4-[(1-methylcyclopropyl)amino]furo[2,3-d]pyrimidine-5-carboxamide] | 10 to 100 | – |
| Cc1oc2ncnc(NC3(C)CC3)c2c1C(=O)N1CCN(c2ccccc2)CC1 [Example 1, (6-Methyl-4-((1-methylcyclopropyl)amino)furo[2,3-d]pyrimidin-5-yl)(4-phenylpiperazin-1-yl)methanone] | – | >8 |
| Cc1oc2ncnc(NC3(C)CC3)c2c1C(=O)N1CCc2nc(C3CC3)ncc2C1 [Example 2, (2-Cyclopropyl-7,8-dihydropyrido[4,3-d]pyrimidin-6(5H)-yl)(6-methyl-4-((1-methylcyclopropyl)amino)furo[2,3-d]pyrimidin-5-yl)methanone] | 10 to 100 | – |
| Cc1oc2ncnc(NC3(C)CC3)c2c1C(=O)NC1(CF)CC1 [Example 3, N-(1-(fluoromethyl)cyclopropyl)-6-methyl-4-((1-methylcyclopropyl)amino)furo[2,3-d]pyrimidine-5-carboxamide] | 10 to 100 | – |
| COc1ncnc2c1CCN(C(=O)c1c(C)oc3ncnc(NC4(C)CC4)c13)C2 [Example 4, (4-Methoxy-5,8-dihydropyrido[3,4-d]pyrimidin-7(6H)-yl)(6-methyl-4-((1-methylcyclopropyl)amino)furo[2,3-d]pyrimidin-5-yl)methanone] | 10 to 100 | – |
| Cc1oc2ncnc(NC3(C)CC3)c2c1C(=O)N1CCc2c(F)ncnc2C1 [Example 5, (4-Fluoro-5,8-dihydropyrido[3,4-d]pyrimidin-7(6H)-yl)(6-methyl-4-((1-methylcyclopropyl)amino)furo[2,3-d]pyrimidin-5-yl)methanone] | 10 to 100 | – |
